Assay results reported in paper PMC4364341, “NBD delivery improves the disease phenotype of the golden retriever model of Duchenne muscular dystrophy” (Skeletal Muscle, 2014).

Columns and labels:
GRMD dogs [1] = assay: Tibiotarsal joint (TTJ) tetanic force/torque, GRMD dogs; type: in vivo, dog; conditions: for Absolute Tetanic Extension Force / Absolute Tetanic Extension Torque / Absolute Tetanic Flexion Force / Absolute Tetanic Flexion Torque / Body-mass Corrected Tetanic Extension Force / Body-mass Corrected Tetanic Extension Torque / Body-mass Corrected Tetanic Flexion Force / Body-mass Corrected Tetanic Flexion Torque: n = 6
Method: The GRMD disease phenotype was initially determined based on elevation of serum creatine kinase and confirmed by PCR. Two cohorts of GRMD dogs were treated with a 4-month course of NBD (10 mg/kg, IV) (American Peptides; Sunnyvale, CA, USA), beginning at approximately 2 months of age. The first cohort included four GRMD (Wasabi, Pepper, Hiver, and Automne) and two wild type (Cumin and Fennel) dogs, while the second cohort included two GRMD (Peach and Kiwi) and one wild type (Mango) dog. Results were compared with those collected from 10 untreated GRMD dogs (Cilantro, Lyle, Napoleon, Summer, Jane, Cosmo, Dorothy, Toto, Hickory, and Zeke) and eight age-matched wild type littermates (Oregano, Parsley, Kip, Pedro, Pinkman, Saul, Heisenberg, and Tuco) through a parallel, but separate, natural history study in which functional, magnetic resonance imaging (MRI), and pathologic data were collected.
For all tests, dogs were anesthetized (premeds: acepromazine maleate (0.02 mg/kg), butorphanol (0.4 mg/kg), and atropine sulfate (0.04 mg/kg); masked/intubated; and maintained with sevoflurane). To assess force and eccentric contraction decrement (below), dogs were positioned in dorsal recumbence in a custom-made stereotactic frame that aligns the tibia parallel to the table at a 90° angle to the femur. The angle at which maximal joint torque is generated during isometric contractions has been termed the optimal joint angle, which is analogous to the optimal fiber length (Lo) for individual muscle force measurements. Our choice of 90° as the optimal joint angle was based on studies in which torque was measured over a range of angles. The length-tension relationship was not shifted for normal versus GRMD dogs. TTJ flexion and extension torque (N-m) was measured by a rapid-response servomotor/force transducer (model 310B LR, Aurora Scientific, Inc., Aurora, ON, Canada) controlled by a PC using custom LabView software. Either the common peroneal (TTJ flexion) or tibial (TTJ extension) nerve was stimulated using paired stimulating and reference 27-gauge monopolar electrodes placed just distal to the fibular head (common peroneal nerve) or within the gastrocnemius muscles (tibial nerve), respectively. As a result, the paw of the distal pelvic limb pulled (flexion) or pushed against (extension) a pedal affixed to a transducer, providing a measure of isometric torque. Supramaximal 150 V, 100 μs pulses were applied (Model S48 Solid State Square Wave Stimulator; Grass Instruments, Quincy, MA, USA) in a tetanic run of 250 pulses (50/s). The site of contact for the paw with the lever (moment arm) was estimated to be 75% of the distance between the point of the hock and the distal digit. Torque (Newton-meters) was divided by the moment arm (meters) to convert to force (Newtons).

GRMD dogs [2] = assay: Eccentric contraction decrement (ECD), GRMD dogs; type: in vivo, dog; conditions: n = 6; for ECD (1-10): after 10 contractions; for ECD (1-30): after 30 contractions
Excerpt: Eccentric contractions were induced by stimulating the peroneal nerve using square wave pulses of 100 μs duration in a tetanic run for 1 s at a frequency of 50 Hz while simultaneously extending the TTJ with a servomotor (Aurora Scientific, Aurora, ON, Canada). The contraction was held isometric at the optimal joint angle, expressed as Lo here (see discussion above), for the first 900 ms. For the final 100 ms, the muscles of the cranial tibial compartment were stretched by the servomotor at 0.7 Lo/s, such that the muscles were displaced to 107% of Lo. Thus, the muscles of the cranial tibial compartment were repeatedly stretched to induce mechanical damage. Three sets of 10 stretches for a total of 30, each set separated by 4 min, were performed. Contraction-induced injury was quantified by the force (torque) deficit (Fd) using the following equation: Fd = (Maximal isometric tetanic force (Po) before stretch - Po after stretch/Po before stretch) × 100.

GRMD dogs [3] = assay: Histopathologic assessment of skeletal muscles, GRMD dogs; type: in vivo, dog
Method: For mice muscles, histopathological assessment was performed as earlier described. For canine samples, CS, lateral gastrocnemius, vastus lateralis, and diaphragm muscles were assessed at the end of the 4-month treatment period when dogs were necropsied. Muscle samples were snap frozen in isopentane cooled in liquid nitrogen, and stored at -80°C. A total of 16 dogs (3 wild type, 2 wild type + NBD, 5 untreated GRMD, and 6 GRMD + NBD) were assessed. Serial frozen sections (n = 10 per dog) from each muscle were processed. For each stain, quantitation was performed on three 10 μm sections of each muscle. To determine the degree of inflammation, cells that stained with a canine specific macrophage PM2K antibody were quantitated. Muscle damage was assessed by scoring for IgG-positive myofibers using immunofluorescence, and necrotic foci by hematoxylin and eosin (H&E) staining. Centrally located nuclei (CLN) were quantified on H&E sections to determine the degree of regeneration. Staining was quantitated on an Olympus BX51 microscope with Microsuite Five software (Olympus Soft Imaging Solutions GmbH, Center Valley, PA, USA). A composite score for all four muscles, reflecting muscle injury, inflammation, and regeneration, was determined.

[4] = system: utrn-/-;mdx double knock out (dko) mice; conditions: NBD-treated dko mice; cited from earlier work
Excerpt: Our ability to collectively achieve such a benefit in GRMD dogs, as well as in mdx diaphragm, [9, 13] and dko hearts, supports the pre-clinical efficacy of NBD. Due to interspecies differences among mice, dogs, and humans, it is difficult to say e ...

[5] = NBD group, age 2 months (start of treatment)
[6] = age 6 months, NBD 10 mg/kg IV 3x weekly for 4 months
[7] = Average rescue of 4 muscles, NBD 10 mg/kg IV 3x weekly for 4 months
[8] = Cranial sartorius, NBD 10 mg/kg IV 3x weekly for 4 months, p = 0.14
[9] = Diaphragm, NBD 10 mg/kg IV 3x weekly for 4 months
[10] = Lateral gastroc, NBD 10 mg/kg IV 3x weekly for 4 months
[11] = Vastus lateralis, NBD 10 mg/kg IV 3x weekly for 4 months

With “TALDWSWLQTE [NBD, NBD peptide (…) fused to an Antennapedia protein transduction domain]” the “Absolute Tetanic Extension Force” value (GRMD dogs [1]; [5]) was 7.50 ± 2.09 N, the “Absolute Tetanic Extension Torque” value (GRMD dogs [1]; [5]) was 0.62 ± 0.16 Nm and the “Absolute Tetanic Flexion Force” value (GRMD dogs [1]; [5]) was 2.05 ± 0.58 N. For the same sequence, the “Absolute Tetanic Flexion Torque” value (GRMD dogs [1]; [5]) was 0.17 ± 0.06 Nm, the “Body-mass Corrected Tetanic Extension Force” value (GRMD dogs [1]; [5]) was 2.11 ± 0.70 N/kg and the “Body-mass Corrected Tetanic Extension Torque” value (GRMD dogs [1]; [5]) was 0.21 ± 0.07 Nm/kg. For the same sequence, the “Body-mass Corrected Tetanic Flexion Force” value (GRMD dogs [1]; [5]) was 0.57 ± 0.15 N/kg, the “Body-mass Corrected Tetanic Flexion Torque” value (GRMD dogs [1]; [5]) was 0.05 ± 0.01 Nm/kg and the “Absolute Tetanic Extension Force” value (GRMD dogs [1]; [6]) was 34.30 ± 9.65^1**,2 N. The “Absolute Tetanic Extension Torque” value (GRMD dogs [1]; [6]) was 4.55 ± 1.49^1**,2 Nm, the “Absolute Tetanic Flexion Force” value (GRMD dogs [1]; [6]) was 6.79 ± 1.13^1 N and the “Absolute Tetanic Flexion Torque” value (GRMD dogs [1]; [6]) was 0.89 ± 0.18^1 Nm. For the same sequence, the “Body-mass Corrected Tetanic Extension Force” value (GRMD dogs [1]; [6]) was 2.70 ± 0.65^2 N/kg, the “Body-mass Corrected Tetanic Extension Torque” value (GRMD dogs [1]; [6]) was 0.36 ± 0.08^1*,2 Nm/kg and the “Body-mass Corrected Tetanic Flexion Force” value (GRMD dogs [1]; [6]) was 0.55 ± 0.13 N/kg. The “Body-mass Corrected Tetanic Flexion Torque” value (GRMD dogs [1]; [6]) was 0.07 ± 0.02^1 Nm/kg, the “Increase in extension force vs untreated GRMD dogs” value (GRMD dogs [1]; pelvic limb, body-mass corrected, NBD 10 mg/kg IV 3x weekly for 4 months, P = 0.038) was 73% and the “ECD (1-10)” value (GRMD dogs [2]; [5]) was 16.12 ± 5.88%. The “ECD (1-10)” value (GRMD dogs [2]; [6]) was 32.04 ± 13.46%, the “ECD (1-30)” value (GRMD dogs [2]; [5]) was 38.67 ± 10.34% and the “ECD (1-30)” value (GRMD dogs [2]; [6]) was 54.48 ± 13.64%. The “Inflammation (PM2K-positive macrophages), percent difference GRMD vs GRMD + NBD” value (GRMD dogs [3]; [7]) was 35.5%, the “Necrosis (IgG-positive myofibers), percent difference GRMD vs GRMD + NBD” value (GRMD dogs [3]; [7]) was 30.3% and the “Regeneration (centrally located nuclei), percent difference GRMD vs GRMD + NBD” value (GRMD dogs [3]; [7]) was 40.8%. The “Inflammation (PM2K-positive macrophages), percent difference GRMD vs GRMD + NBD” value (GRMD dogs [3]; Cranial sartorius, NBD 10 mg/kg IV 3x weekly for 4 months, p < 0.05) was 34%, the “Necrosis (Foci, H&E), percent difference GRMD vs GRMD + NBD” value (GRMD dogs [3]; [8]) was 25% and the “Necrosis (IgG-positive myofibers), percent difference GRMD vs GRMD + NBD” value (GRMD dogs [3]; [8]) was 22%. For the same sequence, the “Regeneration (centrally located nuclei), percent difference GRMD vs GRMD + NBD” value (GRMD dogs [3]; Cranial sartorius, NBD 10 mg/kg IV 3x weekly for 4 months, reduced, p < 0.05) was 43%, the “Inflammation (PM2K-positive macrophages), percent difference GRMD vs GRMD + NBD” value (GRMD dogs [3]; [9]) was 37% and the “Necrosis (Foci, H&E), percent difference GRMD vs GRMD + NBD” value (GRMD dogs [3]; [9]) was 37%. For the same sequence, the “Necrosis (IgG-positive myofibers), percent difference GRMD vs GRMD + NBD” value (GRMD dogs [3]; [9]) was 32%, the “Regeneration (centrally located nuclei), percent difference GRMD vs GRMD + NBD” value (GRMD dogs [3]; [9]) was 41% and the “Final Histological Score of Improvement (composite of all four muscles)” value (GRMD dogs [3]; GRMD + NBD vs untreated GRMD, NBD 10 mg/kg IV 3x weekly for 4 months) was 35.5%. The “Reduction of CS myofiber size vs untreated GRMD muscles” value (GRMD dogs [3]; GRMD + NBD, n = 6, 1800 fibers, P <0.05) was 46%, the “Inflammation (PM2K-positive macrophages), percent difference GRMD vs GRMD + NBD” value (GRMD dogs [3]; [10]) was 40% and the “Necrosis (Foci, H&E), percent difference GRMD vs GRMD + NBD” value (GRMD dogs [3]; [10]) was 34%. The “Regeneration (centrally located nuclei), percent difference GRMD vs GRMD + NBD” value (GRMD dogs [3]; [10]) was 35%, the “Inflammation (PM2K-positive macrophages), percent difference GRMD vs GRMD + NBD” value (GRMD dogs [3]; [11]) was 31% and the “Necrosis (IgG-positive myofibers), percent difference GRMD vs GRMD + NBD” value (GRMD dogs [3]; [11]) was 32%. For the same sequence, the “Regeneration (centrally located nuclei), percent difference GRMD vs GRMD + NBD” value (GRMD dogs [3]; [11]) was 44% and the “Functional response, dko heart” value [4] was “improved back to wild type”.
